Reference: PMC8568899, “Molecular mechanisms of the CdnG-Cap5 antiphage defense system employing 3′,2′-cGAMP as the second messenger” (Nature Communications, 2021)
Where a chain is given by its changes, count along the chain named.

Experiments:
Experiment in all cases: DNA degradation, agarose gel
Type in all cases: biochemical
AsCap5 [1] = molecular target: T1, AsCap5 (Asticcacaulis sp., UniProt Z9IC27YPF2, D220A); conditions: activator; 10 nM cGAMP; linearized plasmid 25 nM; 1 mM MgCl2, 0.5 mM MnCl2, pH 7.4, 37 °C, 15 min
T1 construct: full length; E. coli BL21(DE3), N-terminal 6xHis-SUMO tag cut with Ulp1; codon-optimized gene; homodimer (N-terminal HNH, C-terminal SAVED)
T1 sequence (Z9IC27YPF2 1-384 D220A): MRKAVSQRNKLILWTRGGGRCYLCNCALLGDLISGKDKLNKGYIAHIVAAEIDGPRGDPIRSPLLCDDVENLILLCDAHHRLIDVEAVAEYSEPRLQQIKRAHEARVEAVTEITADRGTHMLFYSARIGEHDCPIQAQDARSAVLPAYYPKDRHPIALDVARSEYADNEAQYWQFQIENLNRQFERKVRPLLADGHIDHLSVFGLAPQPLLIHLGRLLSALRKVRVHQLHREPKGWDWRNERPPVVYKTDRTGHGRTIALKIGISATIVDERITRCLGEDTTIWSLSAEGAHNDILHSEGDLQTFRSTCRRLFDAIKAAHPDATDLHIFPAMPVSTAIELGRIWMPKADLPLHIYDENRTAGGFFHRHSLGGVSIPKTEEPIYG

AsCap5 [2] = molecular target: T2, AsCap5 (Asticcacaulis sp., UniProt Z9IC27YPF2, R310Q); conditions: activator; 10 nM cGAMP; linearized plasmid 25 nM; 1 mM MgCl2, 0.5 mM MnCl2, pH 7.4, 37 °C, 15 min
T2 construct: full length; E. coli BL21(DE3), N-terminal 6xHis-SUMO tag cut with Ulp1; codon-optimized gene; homodimer (N-terminal HNH, C-terminal SAVED)
T2 sequence (Z9IC27YPF2 1-384 R310Q): T1 sequence (Z9IC27YPF2 1-384 D220A) with A220D, R310Q

AsCap5 [3] = molecular target: T3, AsCap5 (Asticcacaulis sp., UniProt Z9IC27YPF2, K347R); conditions: activator; 10 nM cGAMP; linearized plasmid 25 nM; 1 mM MgCl2, 0.5 mM MnCl2, pH 7.4, 37 °C, 15 min
T3 construct: full length; E. coli BL21(DE3), N-terminal 6xHis-SUMO tag cut with Ulp1; codon-optimized gene; homodimer (N-terminal HNH, C-terminal SAVED)
T3 sequence (Z9IC27YPF2 1-384 K347R): T1 sequence (Z9IC27YPF2 1-384 D220A) with A220D, K347R

LlCap5 [4] = molecular target: T4, LlCap5 (Lactococcus cremoris, UniProt A0A1E7G0A2); conditions: activator; 50 nM Cap5, linearized plasmid 25 nM; 1 mM MgCl2, 0.5 mM MnCl2, pH 7.4, 37 °C, 15 min; 10-fold dilution steps
T4 construct: gene AJ89_14580; full length; E. coli BL21(DE3), N-terminal 6xHis-SUMO tag cut with Ulp1; codon-optimized gene; homodimer (N-terminal HNH, C-terminal SAVED)
T4 sequence (A0A1E7G0A2 entry or part of it): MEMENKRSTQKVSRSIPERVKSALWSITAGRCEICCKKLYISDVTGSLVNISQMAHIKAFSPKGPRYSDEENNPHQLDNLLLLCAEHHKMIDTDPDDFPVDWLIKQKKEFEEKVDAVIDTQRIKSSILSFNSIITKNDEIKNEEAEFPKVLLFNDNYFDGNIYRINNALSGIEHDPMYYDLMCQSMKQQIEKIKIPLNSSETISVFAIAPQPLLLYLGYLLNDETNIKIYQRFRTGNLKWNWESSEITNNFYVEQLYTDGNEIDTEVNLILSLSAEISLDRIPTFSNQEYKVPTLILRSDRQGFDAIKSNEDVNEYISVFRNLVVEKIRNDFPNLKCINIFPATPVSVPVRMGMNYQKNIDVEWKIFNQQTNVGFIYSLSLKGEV

AsCap5 [5] = molecular target: T5, AsCap5 (Asticcacaulis sp., UniProt Z9IC27YPF2, R310K); conditions: activator; 10 nM cGAMP; linearized plasmid 25 nM; 1 mM MgCl2, 0.5 mM MnCl2, pH 7.4, 37 °C, 15 min
T5 construct: full length; E. coli BL21(DE3), N-terminal 6xHis-SUMO tag cut with Ulp1; codon-optimized gene; homodimer (N-terminal HNH, C-terminal SAVED)
T5 sequence (Z9IC27YPF2 1-384 R310K): T1 sequence (Z9IC27YPF2 1-384 D220A) with A220D, R310K

AsCap5 [6] = molecular target: T6, AsCap5 (Asticcacaulis sp., UniProt Z9IC27YPF2, K347Q); conditions: activator; 10 nM cGAMP; linearized plasmid 25 nM; 1 mM MgCl2, 0.5 mM MnCl2, pH 7.4, 37 °C, 15 min
T6 construct: full length; E. coli BL21(DE3), N-terminal 6xHis-SUMO tag cut with Ulp1; codon-optimized gene; homodimer (N-terminal HNH, C-terminal SAVED)
T6 sequence (Z9IC27YPF2 1-384 K347Q): T1 sequence (Z9IC27YPF2 1-384 D220A) with A220D, K347Q

AsCap5 [7] = molecular target: T7, AsCap5 (Asticcacaulis sp., UniProt Z9IC27YPF2, K347A); conditions: activator; 10 nM cGAMP; linearized plasmid 25 nM; 1 mM MgCl2, 0.5 mM MnCl2, pH 7.4, 37 °C, 15 min
T7 construct: full length; E. coli BL21(DE3), N-terminal 6xHis-SUMO tag cut with Ulp1; codon-optimized gene; homodimer (N-terminal HNH, C-terminal SAVED)
T7 sequence (Z9IC27YPF2 1-384 K347A): T1 sequence (Z9IC27YPF2 1-384 D220A) with A220D, K347A

AsCap5 [8] = molecular target: T8, AsCap5 (Asticcacaulis sp., UniProt Z9IC27YPF2, D349A); conditions: activator; 10 nM cGAMP; linearized plasmid 25 nM; 1 mM MgCl2, 0.5 mM MnCl2, pH 7.4, 37 °C, 15 min
T8 construct: full length; E. coli BL21(DE3), N-terminal 6xHis-SUMO tag cut with Ulp1; codon-optimized gene; homodimer (N-terminal HNH, C-terminal SAVED)
T8 sequence (Z9IC27YPF2 1-384 D349A): T1 sequence (Z9IC27YPF2 1-384 D220A) with A220D, D349A

AsCap5 [9] = molecular target: T9, AsCap5 (Asticcacaulis sp., UniProt Z9IC27YPF2); conditions: activator; 50 nM Cap5, linearized plasmid 25 nM; 1 mM MgCl2, 0.5 mM MnCl2, pH 7.4, 37 °C, 15 min; 10-fold dilution steps
T9 construct: full length; E. coli BL21(DE3), N-terminal 6xHis-SUMO tag cut with Ulp1; codon-optimized gene; homodimer (N-terminal HNH, C-terminal SAVED)
T9 sequence (Z9IC27YPF2 1-384): T1 sequence (Z9IC27YPF2 1-384 D220A) with A220D

LlCap5 [10] = molecular target: T4, LlCap5; conditions: activator; 50 nM Cap5, linearized plasmid 25 nM; 1 mM MgCl2, 0.5 mM MnCl2, pH 7.4, 37 °C, 15 min; 10-fold dilution steps; remark: listed apart in the source
AsCap5 [11] = molecular target: T9, AsCap5; conditions: activator; 50 nM Cap5, linearized plasmid 25 nM; 1 mM MgCl2, 0.5 mM MnCl2, pH 7.4, 37 °C, 15 min; 10-fold dilution steps; remark: listed apart in the source

Compound | estimated activity (% of wild type) (AsCap5 [1]) | estimated activity (AsCap5 [2]) | fold less active than wild type (AsCap5 [3]) | concentration giving significant DNA degradation (LlCap5 [4]) | estimated activity (AsCap5 [5]) | estimated activity (AsCap5 [6]) | % reduction of activity (AsCap5 [7]) | estimated activity (AsCap5 [8]) | concentration giving significant DNA degradation (AsCap5 [9]) | concentration giving same degradation as 10 nM 3′,2′-cGAMP (LlCap5 [10]) | concentration giving same degradation as 10 nM 3′,2′-cGAMP (AsCap5 [11])
Nc1nc2c(ncn2[C@@H]2O[C@@H]3COP(=O)(O)O[C@@H]4[C@H](O)[C@@H](COP(=O)(O)O[C@H]3[C@H]2O)O[C@H]4n2cnc3c(N)ncnc32)c(=O)[nH]1 [3′,2′-cGAMP] | ~ 15% | R310K and R310Q mutants, and both also showed significantly reduced activities | ~ 10 fold | ~ 10 nM | R310K and R310Q mutants, and both also showed significantly reduced activities | it was even less active than K347A mutant | ~ 98% | D349A mutation showed a similar degree of reduced activity as D220A mutation | ~ 10 nM | – | –
Nc1nc2c(ncn2[C@@H]2O[C@@H]3COP(=O)(O)O[C@H]4[C@@H](O)[C@H](n5cnc6c(N)ncnc65)O[C@@H]4COP(=O)(O)O[C@H]3[C@H]2O)c(=O)[nH]1 [3′,3′-cGAMP] | – | – | – | – | – | – | – | – | – | ~ 100 μM | ~ 100 μM
